Reference: ChEMBL document CHEMBL1201862, “PubChem BioAssay data set” (2004)
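Values below derive from 48-hour exposures of cells grown in 96-well plates, with endpoints linearly interpolated between the two concentrations bracketing the appropriate inhibition level. GI50 = concentration required for 50% inhibition of growth.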 Active and inactive are the calls of the source. Cut-off read from the data, not from the text of the source: active = GI50 up to about 1.1 µM and inactive = higher.

What was measured:
Assay in all cases: NCI-60 cell line screen, 48 h
M19-MEL = test system: M19-MEL
SNB-78 = test system: SNB-78
KM-20L2 = test system: KM-20L2
DLD-1 = test system: DLD-1
DMS-114 = test system: DMS-114
XF498 = test system: XF498
DMS-273 = test system: DMS-273
RXF 631 = test system: RXF 631
HOP-18 = test system: HOP-18

Measured: GI50

COc1ccccc1NC(=O)CC(=O)NNCC(=O)Nc1nnc(-c2ccccc2)o1
inactive: M19-MEL > 100 µM | SNB-78 > 100 µM | KM-20L2 > 100 µM | DLD-1 > 100 µM | DMS-114 > 100 µM | XF498 > 100 µM | DMS-273 > 100 µM | RXF 631 > 100 µM

O=C(/C=C1/NC(=O)CS1)Nc1ccccc1
inactive: M19-MEL > 100 µM | SNB-78 > 100 µM | KM-20L2 > 100 µM | DLD-1 > 100 µM | HOP-18 > 100 µM | DMS-114 > 100 µM | XF498 > 100 µM | DMS-273 > 100 µM | RXF 631 > 100 µM

CCN(CC)c1ccc(/N=C2/C=CC(=C(C#N)C#N)c3ccccc32)c(C)c1
inactive: M19-MEL 1.94 µM | SNB-78 1.63 µM | KM-20L2 1.95 µM | DLD-1 2.44 µM | HOP-18 2.32 µM | XF498 1.44 µM | DMS-273 1.85 µM

Nc1ccc(C(=O)N/C(=C\c2cccc([N+](=O)[O-])c2)c2nc3cc(Cl)ccc3[nH]2)cc1
inactive: M19-MEL > 100 µM | SNB-78 > 100 µM | KM-20L2 17 µM | DLD-1 > 100 µM | DMS-114 > 100 µM | XF498 43.1 µM | RXF 631 63 µM

C=CCN(N=O)C(=O)N(CCCC(NC(C)=O)C(=O)NCc1ccccc1)Cc1ccccc1 (centres undefined)
inactive: M19-MEL 44.4 µM | KM-20L2 42.2 µM | DMS-114 36.9 µM | XF498 36.3 µM | DMS-273 95.7 µM | RXF 631 47.2 µM

CC1(C)OC(COCCOCCCCCO)C(COCCOCCCCCO)O1 (centres undefined)
inactive: M19-MEL > 100 µM | SNB-78 > 100 µM | KM-20L2 > 100 µM | DLD-1 > 100 µM | HOP-18 > 100 µM | DMS-114 > 100 µM | DMS-273 > 100 µM | RXF 631 > 100 µM

Cc1ccccc1NC(=O)Cc1nc2ccccc2s1
inactive: SNB-78 18.6 µM | KM-20L2 18.4 µM | DLD-1 7.08 µM | HOP-18 1.72 µM | XF498 14.5 µM | DMS-273 17.6 µM | RXF 631 16 µM

CCOc1ccc(/N=C/c2cccc3cccnc23)cc1
inactive: M19-MEL > 100 µM | SNB-78 > 100 µM | KM-20L2 > 100 µM | DLD-1 51.4 µM | HOP-18 > 100 µM | DMS-114 88.7 µM | XF498 > 100 µM | DMS-273 81.3 µM | RXF 631 > 100 µM

Cc1cc2c(c(C(=O)O)c1C)-c1cccc(Cl)c1C2=O
inactive: M19-MEL > 100 µM | SNB-78 > 100 µM | KM-20L2 > 100 µM | DLD-1 > 100 µM | DMS-114 > 100 µM | XF498 > 100 µM | DMS-273 > 100 µM

COc1ccc2c(c1)[n+]([O-])c(-c1ccc(Br)cc1)c(N)[n+]2[O-]
inactive: M19-MEL 44.3 µM | SNB-78 54.6 µM | KM-20L2 34.5 µM | DLD-1 44.6 µM | HOP-18 > 100 µM | DMS-114 23.1 µM | XF498 68.4 µM | DMS-273 24.1 µM

[Zn+2][N+]12CCN3CCN4CCN(CC1)[PH]432 (centres undefined)
inactive: M19-MEL > 100 µM | SNB-78 > 100 µM | KM-20L2 > 100 µM | DLD-1 > 100 µM | HOP-18 > 100 µM | DMS-114 > 100 µM | DMS-273 > 100 µM

C=CCN(N=O)C(=O)N(CCC)CCCC(NC(C)=O)C(=O)NCc1ccccc1 (centres undefined)
inactive: M19-MEL > 100 µM | KM-20L2 > 100 µM | HOP-18 > 100 µM | DMS-114 > 100 µM | XF498 > 100 µM | DMS-273 > 100 µM | RXF 631 > 100 µM

COC(=O)/C(=N/NC(=O)C[N+](C)(C)C)C(C(=O)OC)C(=O)C(=O)Nc1ccc(F)cc1 (centres undefined)
inactive: M19-MEL > 100 µM | SNB-78 > 100 µM | KM-20L2 > 100 µM | DLD-1 > 100 µM | HOP-18 > 100 µM | DMS-114 > 100 µM | DMS-273 > 100 µM | RXF 631 > 100 µM

Cc1cc(Cl)ccc1NC(=O)CCCC(=O)C1CCC/C1=N\NC(=O)CC#N (centres undefined)
inactive: M19-MEL > 100 µM | SNB-78 > 100 µM | KM-20L2 > 100 µM | DLD-1 > 100 µM | HOP-18 17.2 µM | DMS-114 > 100 µM | XF498 > 100 µM | DMS-273 > 100 µM | RXF 631 > 100 µM

COC(=O)c1ccc(C(=O)OC)c2nc3cc(C)ccc3nc12
inactive: SNB-78 > 100 µM | KM-20L2 > 100 µM | DLD-1 > 100 µM | HOP-18 > 100 µM | DMS-114 > 100 µM | XF498 > 100 µM | DMS-273 > 100 µM | RXF 631 > 100 µM

CC1CC(c2ccccc2)=Nc2ccccc2S1(=O)=O (centres undefined)
inactive: M19-MEL 14.9 µM | SNB-78 15 µM | KM-20L2 17.8 µM | DLD-1 15.1 µM | HOP-18 13.9 µM | DMS-114 20.9 µM | XF498 18.6 µM | DMS-273 20.1 µM | RXF 631 > 10 µM

Cc1ccc(S(=O)(=O)SCc2ccccc2)cc1
inactive: M19-MEL 33.7 µM | SNB-78 18.5 µM | KM-20L2 22.9 µM | DLD-1 5.31 µM | HOP-18 > 80.4 µM | DMS-114 22.2 µM | XF498 35.5 µM | DMS-273 28.1 µM

CN(C)CCNC(=O)c1ccccc1Nc1c(Cl)cccc1Cl
inactive: M19-MEL 11.1 µM | SNB-78 16.4 µM | KM-20L2 10.9 µM | DLD-1 18.2 µM | XF498 9.66 µM | DMS-273 16.9 µM

O=C(O)CNCc1c2ccccc2nc2ccccc12
inactive: M19-MEL 54.7 µM | SNB-78 54 µM | KM-20L2 29.3 µM | DLD-1 33.3 µM | HOP-18 > 100 µM | DMS-114 20.7 µM | XF498 28.8 µM | DMS-273 40.2 µM

CCCCCC(=O)OCCOCCOCCOCCOCCOCc1ccccc1
inactive: SNB-78 > 100 µM | KM-20L2 > 100 µM | DLD-1 > 100 µM | HOP-18 > 100 µM | DMS-114 > 100 µM | XF498 > 100 µM | DMS-273 > 100 µM

CC(C)N1C(C)[C@@H](c2ccccc2)O[P@]1(=O)CC1=CCCCC1 (some centres undefined)
inactive: M19-MEL > 100 µM | KM-20L2 94.8 µM | DLD-1 > 100 µM | HOP-18 > 100 µM | DMS-114 49.5 µM | XF498 > 100 µM
